One compound from publication PMC5234788 (PLoS ONE, 2017) can be followed below.

pEC50, pIC50: −log10 of the molar value. Where “and” joins values, the source holds several entries; their conditions need not be identical. Identical values can stand only once.

The test system of one test is T1, Dopamine Transporter.
T1 construct: Caliper Lifescience
The test is described as follows: Radio-ligand binding assay, Dopamine Transporter. To be noted: 10 μM l-THBr; radioligand [3H]WIN 35,428. As to the method:
(§1) To determine the possible targets of l-THBr action, the binding affinities of l-THBr to neurotransmitter receptors known to be involved in sedation, hypnosis and anxiety were investigated. Radio-ligand binding assays were performed by Caliper Lifescience (Hopkinton, MA, USA). The screening was carried out at a concentration of 10 μM l–THBr to test its ability to inhibit the binding of radioligands to their corresponding receptors. The results were expressed as percentage of inhibition of labeled ligand binding to individual receptors. Significant binding activity was defined as ≥50%.

Another test relates to T2, Dopamine, D1 (h).
T2 construct: Caliper Lifescience
Kind of test: Radio-ligand binding assay, Dopamine D1. Details: species or system human. Conditions: 10 μM l-THBr. As to the method:
as §1

In the next test the test system is T3, Dopamine, D2s (h).
T3 construct: Caliper Lifescience
Kind of test: Radio-ligand binding assay, Dopamine D2s. Also on record: species or system human. To be noted: 10 μM l-THBr. On the procedure:
as §1

A further test deals with GABA A, Agonist Site. The test is described as follows: Radio-ligand binding assay, GABA A agonist site. To be noted: 10 μM l-THBr; radioligand [3H]GABA. As to the method: as §1
For test [1], the system named is T4, GABA A, BDZ, Alpha 1 site.
T4 construct: Caliper Lifescience
Kind of test: Radio-ligand binding assay, GABA A BDZ alpha 1 site. To be noted: 10 μM l-THBr; radioligand [3H]Flunitrazepam. On the procedure: as §1

The test system of test [2] is Glutamate, NMDA Agonist Site (Ionotropic). The test is described as follows: Radio-ligand binding assay, Glutamate NMDA agonist site. Conditions: 10 μM l-THBr; radioligand [3H]CGP 39653. On the procedure: as §1
Test [3] deals with T5, Glutamate, NMDA, Glycine (stry-insens Site (Ionotropic)).
T5 construct: Caliper Lifescience
The test is described as follows: Radio-ligand binding assay, Glutamate NMDA glycine site. To be noted: 10 μM l-THBr; radioligand [3H]-MDL-105,519. On the procedure:
as §1

For test [4], the system named is Glycline, Strychnine-sensitive. Kind of test: Radio-ligand binding assay, Glycine strychnine-sensitive. To be noted: 10 μM l-THBr; radioligand [3H]Strchnine. On the procedure: as §1
Another test deals with T6, Serotonin Transporter.
T6 construct: Caliper Lifescience
The test is described as follows: Radio-ligand binding assay, Serotonin Transporter. To be noted: 10 μM l-THBr; radioligand [3H]Citalopram,N-Methyl. On the procedure: as §1

The test system of a further test is T7, Serotonin, 5HT3.
T7 construct: Caliper Lifescience
Kind of test: Radio-ligand binding assay, Serotonin 5HT3. To be noted: 10 μM l-THBr; radioligand [3H]GR 65630. On the procedure:
as §1

A further test deals with T8, Serotonin, 5HT4.
T8 construct: Caliper Lifescience
The test is described as follows: Radio-ligand binding assay, Serotonin 5HT4. To be noted: 10 μM l-THBr; radioligand [3H] 113808. On the procedure: as §1

A further test relates to T9, Serotonin, 5HT5A (h).
T9 construct: Caliper Lifescience
Kind of test: Radio-ligand binding assay, Serotonin 5HT5A. Details: species or system human. To be noted: 10 μM l-THBr; radioligand [3H]-LSD. As to the method:
as §1

Test [5] addresses T10, human D2 dopamine receptor (Homo sapiens, UniProt P14416).
T10 construct: host or cells: HEK293
The test is described as follows: biochemical. In kind it is biochemical. An excerpt:
(§2) D2-D4 dopamine receptors and 5-HT1A serotonin receptors are Gαi-coupled receptors that mediate inhibitory neurotransmission. We conducted [^35S]GTPγS assays to determine the agonist or antagonist properties of l-THBr at D2 dopamine receptors or 5-HT1A serotonin receptors. HEK293 cells stably expressing D2 receptors were provided by the Beijing Institute of Pharmacology and Toxicology (Beijing, China). The membrane preparation of D2-expressing HEK293 cells and rat hippocampal tissues highly expressing 5-HT1A receptors were prepared as previously described. Briefly, 10 SD rats were anesthetized and decapitated, and the hippocampi were quickly dissected and stored at -80°C until use. D2 receptor-expressing HEK293 cells and the hippocampal tissue were each homogenized at 4°C in 50 mM Tris-HCl buffer (pH 7.4). The homogenates were centrifuged at 2500 × g for 6 min, and the supernatant was further centrifuged for 20 min at 40000 × g. Membranes were re-suspended in Tris-HCl buffer and stored at -80°C until use.
(§3) [^35S]GTPγS assays were performed in a total volume of 0.5 ml at 4°C. […] Bound radioactivity was determined by liquid scintillation counting. Drug effects were expressed as drug-induced increase in binding over basal binding (binding in the absence of drugs). […] The inhibitory effect of l–THBr was determined by a similar equation to obtain the IC50 values.

Test [6] deals with T11, 5-HT1A receptors in rat hippocampus (Rattus norvegicus, UniProt P19327).
T11 construct: rat hippocampal tissues highly expressing 5-HT1A receptors were prepared as previously described; from tissue; host or cells: SD rat hippocampus membranes
Kind of test: [35S]GTPγS assay for 5-HT1A receptor activity in rat hippocampus. In kind it is biochemical. Conditions: rat hippocampus membranes; read-out: EC50, increase in [35S]GTPγS binding.
Description: as §2, §3
On the technique in general: GTPγS resists hydrolysis and so accumulates on activated G proteins.

The subject of the next test is male CD-1 ICR mice. Kind of test: Elevated plus-maze test. Type of test: in vivo. From the text:
The elevated plus-maze test is widely used for the screening and evaluation of anxiolytic drugs. The apparatus consists of two open arms (30 cm × 5 cm) and two enclosed arms (30 cm × 5 cm × 15 cm), which is elevated 45 cm above the ground. The entire maze was made of clear Plexiglas and illuminated by four 30 W white lights with 300 lx light intensity arranged as a cross 100 cm above the maze. 48 male CD-1 ICR mice were randomly divided into either the vehicle group, one of three doses of l–THBr groups, or the diazepam group. 30 min after injection, mice were gently placed on the center platform facing an open arm, and the number of entries and the time spent in both arms were recorded by a video camera for 5 min. The results were expressed as the percentage of entries into the open arms (%) = (the number of entries into the open arms / the total number of entries into the four arms) × 100%; and the percentage of time spent in the open arms (%) = (time spent in the open arms / total time spent in the four arms) × 100%.
In a separate experiment, WAY100635 (a 5-HT1A antagonist) was used to test whether the anxiolytic-like activity of l-THBr is mediated by the activation of the 5-HT1A receptor. Forty male CD-1 ICR mice were randomly divided into one of four groups: vehicle, WAY100635 (3 mg/kg, i.p.), l–THBr (5 mg/kg, i.p.) or WAY100635 (3 mg/kg, i.p.) + l–THBr (5 mg/kg, i.p.). Mice were administered vehicle or WAY100635 followed by vehicle or l–THBr (5 mg/kg) injections 15 min later. The test was performed 30 min after the administration of l-THBr or vehicle.

[7] abbreviates: l-THBr 1 or 5 mg/kg, i.p., P < 0.05 vs control.

T10 sequence (P14416 whole entry): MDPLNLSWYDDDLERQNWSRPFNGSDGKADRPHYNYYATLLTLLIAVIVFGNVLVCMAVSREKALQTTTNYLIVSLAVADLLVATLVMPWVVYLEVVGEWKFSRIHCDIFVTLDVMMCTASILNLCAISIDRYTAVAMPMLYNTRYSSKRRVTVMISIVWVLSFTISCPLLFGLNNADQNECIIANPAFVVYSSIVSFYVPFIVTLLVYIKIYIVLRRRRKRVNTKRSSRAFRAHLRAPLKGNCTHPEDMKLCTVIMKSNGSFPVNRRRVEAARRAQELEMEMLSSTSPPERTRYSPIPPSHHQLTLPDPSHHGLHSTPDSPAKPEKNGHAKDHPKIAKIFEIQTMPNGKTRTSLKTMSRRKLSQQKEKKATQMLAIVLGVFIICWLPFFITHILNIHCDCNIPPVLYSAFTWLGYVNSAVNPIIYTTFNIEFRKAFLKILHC
T11 sequence (P19327 whole entry): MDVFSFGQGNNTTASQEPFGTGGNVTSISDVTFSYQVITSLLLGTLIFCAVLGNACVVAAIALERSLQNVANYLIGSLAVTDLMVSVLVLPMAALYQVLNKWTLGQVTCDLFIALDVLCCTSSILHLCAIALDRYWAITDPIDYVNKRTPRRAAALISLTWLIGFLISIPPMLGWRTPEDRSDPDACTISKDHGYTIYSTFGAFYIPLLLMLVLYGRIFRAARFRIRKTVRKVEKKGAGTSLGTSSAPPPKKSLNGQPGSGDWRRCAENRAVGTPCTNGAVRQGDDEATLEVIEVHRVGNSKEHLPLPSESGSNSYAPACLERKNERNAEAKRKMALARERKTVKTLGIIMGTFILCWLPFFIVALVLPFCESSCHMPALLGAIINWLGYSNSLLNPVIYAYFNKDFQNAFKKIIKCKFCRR

Consider `COc1ccc2c(c1O)CN1CCc3cc4c(cc3[C@@H]1C2)OCO4` [l-THBr, levo-tetrahydroberberrubine], for which the Average inhibition percentage was 8.8% in the test with Dopamine Transporter; 100.6% and 100.61% in the test with Dopamine, D1 (h) (radioligand [3H]-SCH23390); 98.41% and 96.43% in the test on Dopamine, D2s (h) (radioligand [3H]-Raclopride); 7.89% with GABA A, Agonist Site; -3.30% in test [1]; 4.79% in test [2]. Moreover, the Average inhibition percentage in [3] is 1.79%; in test [4] it was 21.26%; in the test with Serotonin Transporter, 34.43%; in the test on Serotonin, 5HT3, 23.02%; in the test with Serotonin, 5HT4, 32.84%; in the test on Serotonin, 5HT5A (h), 23.79%. The Activity entry is “Yes (Significant binding affinity of l-THBr was defined as greater than 50% inhibition of ligand binding)” in the test with Dopamine, D1 (h) and “Yes (Significant binding affinity of l-THBr was defined as greater than 50% inhibition of ligand binding)” with Dopamine, D2s (h). The pIC50 (commonly the IC50 on a negative log10 scale, so that one unit is a factor of ten) in [5] was 8.28. Further, in test [5], the “dose-dependent increase in [35S]GTPγS binding (agonist effect)” value is listed as “but not l-THBr induced a dose-dependent increase”. In addition, in [6], the pEC50 (usually the negative decadic logarithm of the EC50, by convention in mol/L) was 6.63. The “anxiolytic-like effects (open arm entries and time) on co-administration of 5-HT1A antagonist WAY100635” value in the test on male CD-1 ICR mice (l-THBr 5 mg/kg i.p. + WAY100635 3 mg/kg i.p. given 15 min earlier) was “significantly reversed”. Besides, the “ratio of entries into the open arms” value in the test with male CD-1 ICR mice (setting [7]) is recorded as “increased”. For the same compound, the “ratio of time spent in the open arms” value in the test on male CD-1 ICR mice (setting [7]) is recorded as “increased”.
